We go through 29 molecules from patent US12692247B2, “Phenyl- and pyridopyrazole derivatives as inhibitors of DDR1” (Redx Pharma Limited, priority 2021, dated 2026).

One assay addresses T1, Recombinant human DDR2 (Homo sapiens, UniProt Q16832).
T1 construct: DDR2 (1.75 nM; aa427-855 containing a GST tag)
T1 sequence (Q16832 427-855): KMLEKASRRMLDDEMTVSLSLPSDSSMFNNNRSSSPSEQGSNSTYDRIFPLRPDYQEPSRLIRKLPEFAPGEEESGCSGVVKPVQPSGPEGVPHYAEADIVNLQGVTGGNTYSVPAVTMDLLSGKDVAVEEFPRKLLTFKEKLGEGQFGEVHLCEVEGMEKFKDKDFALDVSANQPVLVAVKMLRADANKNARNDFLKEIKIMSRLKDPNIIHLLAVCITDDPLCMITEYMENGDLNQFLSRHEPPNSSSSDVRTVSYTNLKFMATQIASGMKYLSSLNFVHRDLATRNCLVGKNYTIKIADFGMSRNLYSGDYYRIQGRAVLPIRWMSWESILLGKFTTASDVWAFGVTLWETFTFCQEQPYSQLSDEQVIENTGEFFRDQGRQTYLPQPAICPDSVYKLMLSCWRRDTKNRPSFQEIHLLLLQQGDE
The assay can be described thus: LanthaScreen Eu Kinase Binding Assay, DDR2. Conditions: recombinant human DDR2 (1.75 nM; aa427-855, GST tag), Kinase Tracer 178 10 nM, time-resolved fluorescence, at least two independent replicates; read-out: DDR2 pIC50 (converted). As to the method: (§1) DDR1 and DDR2 Biochemical Assay Method
(§2) The capacity of compounds to bind to DDR1 and DDR2 was quantified using a LanthaScreen Eu Kinase Binding Assay. Recombinant human DDR1 (2.5 nM; aa440-876 containing a GST tag) and DDR2 (1.75 nM; aa427-855 containing a GST tag) were diluted in assay buffer (50 mM HEPES pH7.3, 10 mM MgCl2, 1 mM EGTA and 0.01% Tween) with various concentrations of compound in a 384-well plate and a volume of 5 uL. After a 30-minute incubation at room temperature, 2.5 uL of Eu-anti GST antibody (diluted to 1 nM in assay buffer) plus Kinase Tracer 178 (diluted in assay buffer to 5 nM for DDR1 and 10 nM for DDR2) were added to the plate. Following 60-minute incubation at room temperature, time-resolved fluorescence was measured on a BMG Labtech PHERAstar plate reader. DMSO (1%) and reference compound (1 μM) were used to generate the Max and Min assay signals, respectively. Data was analysed using a four-parameter logistic model to calculate IC50 values, with at least two independent replicates were performed for each compound.

Another assay concerns the target T2, Recombinant human DDR1 (Homo sapiens, UniProt Q08345).
T2 construct: Recombinant human DDR1 (2.5 nM; aa440-876 containing a GST tag)
The assay can be described thus: LanthaScreen Eu Kinase Binding Assay, DDR1. Conditions: recombinant human DDR1 (2.5 nM; aa440-876, GST tag), Kinase Tracer 178 5 nM, time-resolved fluorescence, at least two independent replicates; read-out: DDR1 pIC50 (converted). As to the method:
as §1, §2
(In general: In TR-FRET formats the signal depends on donor and acceptor labels being close together.)

T2 sequence (Q08345 440-876 isoform Q08345-2): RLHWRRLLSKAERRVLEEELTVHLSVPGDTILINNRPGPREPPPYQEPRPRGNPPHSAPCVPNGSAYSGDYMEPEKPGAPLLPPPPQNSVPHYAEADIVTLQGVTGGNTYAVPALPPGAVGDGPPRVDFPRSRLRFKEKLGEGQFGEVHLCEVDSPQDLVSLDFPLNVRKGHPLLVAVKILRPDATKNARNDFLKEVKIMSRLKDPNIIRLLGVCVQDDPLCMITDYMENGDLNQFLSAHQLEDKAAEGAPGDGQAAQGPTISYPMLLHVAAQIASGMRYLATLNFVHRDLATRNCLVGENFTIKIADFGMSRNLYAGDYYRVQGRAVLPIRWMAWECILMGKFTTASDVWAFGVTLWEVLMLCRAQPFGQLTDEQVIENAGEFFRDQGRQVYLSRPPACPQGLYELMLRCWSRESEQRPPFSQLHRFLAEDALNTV

With `Cn1ncc2cc(Nc3cccc4ccn(CC(=O)Nc5ccc(C(F)(F)F)cc5)c(=O)c34)ccc21` [Example 30, 2-[8-[(1-methylindazol-5-yl)amino]-1-oxo-2-isoquinolyl]-N-[4-(trifluoromethyl)phenyl]acetamide], the IC50 at Recombinant human DDR2 was not below 1000 nM; at Recombinant human DDR1 it was less than 10 nM.

With `CN(C)Cc1ccc(NC(=O)Cn2ccc3cccc(Nc4ccc5c(cnn5C)c4)c3c2=O)cc1C(F)(F)F` [Example 112, N-[4-[(dimethylamino)methyl]-3-(trifluoromethyl)phenyl]-2-[8-[(1-methylindazol-5-yl)amino]-1-oxo-2-isoquinolyl]acetamide], the IC50 at Recombinant human DDR2 is 10 to 100 nM; on Recombinant human DDR1, less than 10 nM.

For the molecule `Cn1ncc2cc(Nc3cccc4ccn(CC(=O)NC5(C(F)(F)F)CCCC5)c(=O)c34)ccc21` [Example 42, 2-[8-[(1-methylindazol-5-yl)amino]-1-oxo-2-isoquinolyl]-N-[1-(trifluoromethyl)cyclopentyl]acetamide], the IC50 is 100 to 1000 nM on Recombinant human DDR2 and 10 to 100 nM on Recombinant human DDR1.

For the molecule `Cc1noc(C)c1NC(=O)Cn1ccc2cccc(Nc3ccc4c(cnn4C)c3)c2c1=O` [Example 69, N-(3,5-dimethylisoxazol-4-yl)-2-[8-[(1-methylindazol-5-yl)amino]-1-oxo-2-isoquinolyl]acetamide], the IC50 on Recombinant human DDR2 and on Recombinant human DDR1 was 100 to 1000 nM throughout.

On to `Cn1ccnc1NC(=O)Cn1ccc2cccc(Nc3ccc4c(cnn4C)c3)c2c1=O` [Example 77, N-(1-methylimidazol-2-yl)-2-[8-[(1-methylindazol-5-yl)amino]-1-oxo-2-isoquinolyl]acetamide], for which the IC50 at Recombinant human DDR2 and on Recombinant human DDR1 was not below 1000 nM throughout.

For the molecule `Cn1ncc2cc(Nc3cccc4ccn(CC(=O)Nc5cnoc5)c(=O)c34)ccc21` [Example 37, N-isoxazol-4-yl-2-[8-[(1-methylindazol-5-yl)amino]-1-oxo-2-isoquinolyl]acetamide], the IC50 at Recombinant human DDR2 was 10 to 100 nM; at Recombinant human DDR1, less than 10 nM.

With `Cn1ncc2cc(Nc3cccc4ccn(CC(=O)Nc5cnoc5)c(=O)c34)cnc21` [Example 101], the figures for the IC50 at Recombinant human DDR2 and at Recombinant human DDR1 were 100 to 1000 nM and 10 to 100 nM, respectively.

Take `Cn1ncc2cc(Nc3cccc4ccn(CC(=O)Nc5cnco5)c(=O)c34)ccc21` [Example 95, 2-{8-[(1-methyl-1H-indazol-5-yl)amino]-1-oxo-1,2-dihydroisoquinolin-2-yl}-N-(1,3-oxazol-5-yl)acetamide]: the results for the IC50 on Recombinant human DDR2 and at Recombinant human DDR1 were 100 to 1000 nM and 10 to 100 nM, respectively.

Turning to `COc1cncc(NC(=O)Cn2ccc3cccc(Nc4ccc5c(cnn5C)c4)c3c2=O)c1` [Example 56, N-(5-methoxy-3-pyridyl)-2-[8-[(1-methylindazol-5-yl)amino]-1-oxo-2-isoquinolyl]acetamide], the IC50 on Recombinant human DDR2 and on Recombinant human DDR1 was 10 to 100 nM throughout.

As to `Cn1ncc2cc(Nc3cccc4ccn(CC(=O)NCC(C)(C)O)c(=O)c34)ccc21` [Example 54, N-(2-hydroxy-2-methyl-propyl)-2-[8-[(1-methylindazol-5-yl)amino]-1-oxo-2-isoquinolyl]acetamide], the IC50 on Recombinant human DDR2 is not below 1000 nM; at Recombinant human DDR1, 100 to 1000 nM.

Take `Cn1ncc2cc(Nc3cccc4ccn(CC(=O)N5CCCC(C(F)(F)F)C5)c(=O)c34)ccc21` (stereo not shown) [Example 121]: the IC50 was 100 to 1000 nM on Recombinant human DDR2 and 10 to 100 nM on Recombinant human DDR1.

As for `CN1CCN(Cc2ccc(NC(=O)Cn3ccc4cccc(Nc5ccc6c(cnn6C)c5)c4c3=O)cc2C(F)(F)F)CC1` [Example 76], the IC50 on Recombinant human DDR2 and on Recombinant human DDR1 was 10 to 100 nM each time.

As for `CN1CCN(C(=O)Cn2ccc3cccc(Nc4ccc5c(cnn5C)c4)c3c2=O)CC1` [Example 13, 8-[(1-methylindazol-5-yl)amino]-2-[2-(4-methylpiperazin-1-yl)-2-oxo-ethyl]isoquinolin-1-one], the IC50 at Recombinant human DDR2 and on Recombinant human DDR1 was not below 1000 nM in each case.

Regarding `Cn1ncc2cc(Nc3cccc4ccn(CC(=O)N5CCOCC5C(F)(F)F)c(=O)c34)ccc21` (stereo not shown) [Example 87, 8-[(1-methylindazol-5-yl)amino]-2-[2-oxo-2-[3-(trifluoromethyl)morpholin-4-yl]ethyl]isoquinolin-1-one], the IC50 at Recombinant human DDR2 is 100 to 1000 nM; on Recombinant human DDR1, 10 to 100 nM.

For the molecule `CN(c1ccc2c(cnn2C)c1)c1cccc2ccn(CC(=O)Nc3cnoc3)c(=O)c12` [Example 140, N-isoxazol-4-yl-2-[8-[methyl-(1-methylindazol-5-yl)amino]-1-oxo-2-isoquinolyl]acetamide], the IC50 on Recombinant human DDR2 and on Recombinant human DDR1 was 10 to 100 nM each time.

`Cc1cc(C)n(C(=O)Cn2ccc3cccc(Nc4ccc5c(cnn5C)c4)c3c2=O)n1` [Example 98, 2-[2-(3,5-dimethyl-1H-pyrazol-1-yl)-2-oxoethyl]-8-[(1-methyl-1H-indazol-5-yl)amino]-1,2-dihydroisoquinolin-1-one]: the IC50 on Recombinant human DDR2 and at Recombinant human DDR1 was 10 to 100 nM in each case.

Turning to `Cn1ncc2cc(Nc3cccc4ccn(CC(=O)N5CCOCC5)c(=O)c34)ccc21` [Example 11], the IC50 at Recombinant human DDR2 and at Recombinant human DDR1 was 100 to 1000 nM each time.

Consider `Cn1ncc2cc(Nc3cccc4ccn(CC(=O)Nc5cccnc5)c(=O)c34)ccc21` [Example 24, 2-[8-[(1-methylindazol-5-yl)amino]-1-oxo-2-isoquinolyl]-N-(3-pyridyl)acetamide], for which the values for the IC50 on Recombinant human DDR2 and at Recombinant human DDR1 were not below 1000 nM and 100 to 1000 nM, respectively.

`Cn1ncc2cc(Nc3cccc4ccn(CC(=O)Nc5cncnc5)c(=O)c34)ccc21` [Example 25, 2-[8-[(1-methylindazol-5-yl)amino]-1-oxo-2-isoquinolyl]-N-pyrimidin-5-yl-acetamide]: the IC50 at Recombinant human DDR2 was not below 1000 nM; at Recombinant human DDR1 it was 100 to 1000 nM.

As to `Cc1ccc(Nc2ccc3c(cnn3C)c2)c2c(=O)n(CC(=O)NCC(F)(F)F)ccc12` [Example 8, 2-[5-methyl-8-[(1-methylindazol-5-yl)amino]-1-oxo-2-isoquinolyl]-N-(2,2,2-trifluoroethyl)acetamide], the IC50 on Recombinant human DDR2 and on Recombinant human DDR1 was not below 1000 nM each time.

For `Cn1ncc2cc(Nc3cccc4ccn(CC(=O)N5CCC[C@H]5C(F)(F)F)c(=O)c34)ccc21` [Example 49], the IC50 is 10 to 100 nM on Recombinant human DDR2 and less than 10 nM on Recombinant human DDR1.

Turning to `C[C@@H](NC(=O)Cn1ccc2cccc(Nc3ccc4c(cnn4C)c3)c2c1=O)C(F)(F)F` [Example 20, 2-[8-[(1-methylindazol-5-yl)amino]-1-oxo-2-isoquinolyl]-N-[(1R)-2,2,2-trifluoro-1-methyl-ethyl]acetamide], the IC50 at Recombinant human DDR2 and at Recombinant human DDR1 was 100 to 1000 nM throughout.

As for `O=C(Cn1ccc2cccc(Nc3ccc4cn[nH]c4c3)c2c1=O)NCC(F)(F)F` [Example 2], the IC50 at Recombinant human DDR2 was not below 1000 nM; at Recombinant human DDR1 it was 10 to 100 nM.

Consider `CC(=O)C1CCCCN1C(=O)Cn1ccc2cccc(Nc3ccc4c(cnn4C)c3)c2c1=O` (stereo not shown) [Example 141, 2-[2-(2-acetyl-1-piperidyl)-2-oxoethyl]-8-[(1-methylindazol-5-yl)amino]isoquinolin-1-one], for which the results for the IC50 at Recombinant human DDR2 and on Recombinant human DDR1 were not below 1000 nM and 100 to 1000 nM, respectively.

Consider `Cn1ncc2cc(Nc3cccc4ccn(CC(=O)NC5CCOCC5)c(=O)c34)ccc21` [Example 15, 2-[8-[(1-methylindazol-5-yl)amino]-1-oxo-2-isoquinolyl]-N-tetrahydropyran-4-yl-acetamide], for which the figures for the IC50 on Recombinant human DDR2 and on Recombinant human DDR1 were not below 1000 nM and 100 to 1000 nM, respectively.

As for `Cn1ncc2cc(Nc3cccc4ccn(CC(=O)Nc5cccc(C(C)(C)N)c5)c(=O)c34)ccc21` [Example 103], the figures for the IC50 at Recombinant human DDR2 and on Recombinant human DDR1 were 10 to 100 nM and less than 10 nM, respectively.

For the molecule `Cn1ncc2cc(Nc3cccc4ccn(CC(=O)N5C6CCC5COC6)c(=O)c34)ccc21` [Example 97, 8-[(1-methyl-1H-indazol-5-yl)amino]-2-(2-{3-oxa-8-azabicyclo[3.2.1]octan-8-yl}-2-oxoethyl)-1,2-dihydroisoquinolin-1-one], the IC50 at Recombinant human DDR2 is not below 1000 nM; on Recombinant human DDR1 it was 100 to 1000 nM.

With `Cn1ncc2cc(Nc3cccc4ccn(CC(=O)NCC(F)F)c(=O)c34)ccc21` [Example 10], the IC50 on Recombinant human DDR2 was 100 to 1000 nM; at Recombinant human DDR1, 10 to 100 nM.

Take `CC(C)[C@H](NC(=O)Cn1ccc2cccc(Nc3ccc4c(cnn4C)c3)c2c1=O)C(F)(F)F` [Example 46, 2-[8-[(1-methylindazol-5-yl)amino]-1-oxo-2-isoquinolyl]-N-[(S)-2-methyl-1-(trifluoromethyl)propyl]acetamide]: the IC50 at Recombinant human DDR2 and on Recombinant human DDR1 was 10 to 100 nM throughout.
